Measured values: patent publication US9115073B2, “1,3-diphenylpropane derivatives, preparations and uses thereof” (GENFIT, priority 2011, dated 2015)

Tests used:
Assay type in all cases: cell-based
[1] = biological target: T1, hPPARalpha (Homo sapiens, UniProt Q07869); assay: Gal4-hPPARalpha transactivation assay in COS-7 cells (luciferase); settings: for EC50: Gal4-hPPARα(LBD) transactivation; for Emax: COS-7, maximal relative activation vs reference, read-out: Gal4-hPPARα(LBD) TOP (% ref); for Gal4-hPPARα(LBD) TOP (% ref): maximal relative activation vs reference
T1 construct: Gal4-hPPARα(LBD); Gal4 (fusion partner); expressed in transfected cells; host or cells: COS-7 (monkey kidney)
T1 sequence (Q07869 239-466 limits assumed): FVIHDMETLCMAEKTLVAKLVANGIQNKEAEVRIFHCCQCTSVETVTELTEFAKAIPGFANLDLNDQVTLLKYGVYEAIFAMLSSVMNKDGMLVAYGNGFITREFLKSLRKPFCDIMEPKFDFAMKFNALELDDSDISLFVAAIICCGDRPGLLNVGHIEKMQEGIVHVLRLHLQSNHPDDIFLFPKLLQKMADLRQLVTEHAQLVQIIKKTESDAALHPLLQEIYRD
Protocol: (§1) Monkey kidney COS-7 cells were maintained in standard culture conditions (Dulbecco's modified Eagle's minimal medium: DMEM) supplemented with 10% fetal calf serum, 1% sodium pyruvate, 1% essential amino acids and 1% antibiotics at 37° C. in a humidified atmosphere of 5% C02 and 95% air. The medium was changed every 2 days. All tested compounds were dissolved in DMSO. Cells were transfected using 2 μl JetPEI™ (Polyplus transfection)/μg of DNA. Briefly, 40 μg of DNA was transfected in a 225 cm^2 culture flask of adherent COS-7 cells (respecting the 1/50 ratio between the Gal4(RE)_TkpGL3 plasmid and the plasmid coding the nuclear receptor of interest (pGal4-hPPARalpha, pGal4-hPPARgamma, pGal4-hPPARdelta, pGal4-mPPARalpha, pGal4-mPPARgamma and pGal4-mPPARdelta) or of the pGal4phi plasmid (negative control). Cells were enzymatically detached and seeded in 384 well plates at the density of 20,000 cells/well and then incubated for 4 hours at 37° C. The activation was automatically performed, by using the Genesis Freedom 200™ (Tecan), in fresh medium supplemented with 2% of synthetic serum, free of lipids (Ultroser™, Biosepra) supplemented with the tested compounds (compound of interest or reference molecules) or vehicle (DMSO 0.1%). The luciferase activity was measured with the Steady-Glo Luciferase Assay System (Promega, Madison, Wis.). All transactivation experiments were performed at least 2 times. Activation curves were realized using SigmaPlot® (version 7.0 from SPSS Inc.) software and took into account all the experimental points. SimgaPlot® was also used to fit the standard curves and then determine the specific EC50 values, maximum effect versus reference molecules and Hill slope. The Emax effect of each new ligand is represented as the ratio of the maximal induction (plateau) obtained with the new ligand and the induction obtained with the corresponding reference compound. The reference compounds for PPARalpha, PPARgamma and PPARdelta were fenofibrate (100 μM), rosiglitazone (10 μM) and GW501516 (1 μM).

[2] = biological target: T2, hPPARgamma (Homo sapiens, UniProt P37231); assay: Gal4-hPPARgamma transactivation assay in COS-7 cells (luciferase); settings: for EC50: Gal4-hPPARγ(LBD) transactivation; for Emax: COS-7, maximal relative activation vs reference, read-out: Gal4-hPPARγ(LBD) TOP (% ref); for Gal4-hPPARγ(LBD) TOP (% ref): maximal relative activation vs reference
T2 construct: Gal4-hPPARγ(LBD); Gal4 (fusion partner); expressed in transfected cells; host or cells: COS-7 (monkey kidney)
T2 sequence (P37231 238-503 limits assumed): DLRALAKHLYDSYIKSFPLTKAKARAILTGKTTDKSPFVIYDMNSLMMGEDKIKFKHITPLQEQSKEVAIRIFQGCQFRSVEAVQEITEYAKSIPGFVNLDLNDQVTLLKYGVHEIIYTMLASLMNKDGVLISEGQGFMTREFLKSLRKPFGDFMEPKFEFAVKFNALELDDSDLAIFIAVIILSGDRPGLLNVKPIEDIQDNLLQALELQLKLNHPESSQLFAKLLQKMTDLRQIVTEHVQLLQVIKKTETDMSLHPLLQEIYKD
Protocol: as §1

[3] = biological target: T3, hPPARdelta (Homo sapiens, UniProt Q03181); assay: Gal4-hPPARdelta transactivation assay in COS-7 cells (luciferase); settings: for EC50: Gal4-hPPARδ(LBD) transactivation; for Emax: COS-7, maximal relative activation vs reference, read-out: Gal4-hPPARδ(LBD) TOP (% ref); for Gal4-hPPARδ(LBD) TOP (% ref): maximal relative activation vs reference
T3 construct: Gal4-hPPARδ(LBD); Gal4 (fusion partner); expressed in transfected cells; host or cells: COS-7 (monkey kidney)
T3 sequence (Q03181 211-439 limits assumed): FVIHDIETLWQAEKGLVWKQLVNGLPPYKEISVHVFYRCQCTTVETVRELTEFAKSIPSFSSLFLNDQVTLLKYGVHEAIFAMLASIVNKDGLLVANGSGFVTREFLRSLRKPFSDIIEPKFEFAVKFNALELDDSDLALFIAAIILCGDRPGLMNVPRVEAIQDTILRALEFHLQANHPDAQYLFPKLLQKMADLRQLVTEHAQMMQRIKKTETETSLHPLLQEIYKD
Protocol: as §1

| Compound | EC50 [1] | EC50 [2] | EC50 [3] | Emax [1] | Emax [2] | Emax [3] | Gal4-hPPARα(LBD) TOP (% ref) [1] | Gal4-hPPARγ(LBD) TOP (% ref) [2] | Gal4-hPPARδ(LBD) TOP (% ref) [3] | also measured |
| --- | --- | --- | --- | --- | --- | --- | --- | --- | --- | --- |
| COC(c1ccc(SC(F)(F)F)cc1)C1CC1c1cc(C)c(OC(C)(C)C(=O)O)c(C)c1 (racemic) [Cpd 9-1, 2-(4-(2-(methoxy(4-(trifluoromethylthio)phenyl)methyl)cyclopropyl)-2,6-dimethylphenoxy)-2-methylpropanoic acid] | 10 nM | 11 nM | 14 nM | 50% | 77% | 89% | – | – | – | – |
| COC(c1ccc(OC(F)(F)F)cc1)C1CC1c1cc(C)c(OC(C)(C)C(=O)O)c(C)c1 (racemic) [Cpd 14-2, 2-(4-(2-(methoxy(4-(trifluoromethoxy)phenyl)methyl)cyclopropyl)-2,6-dimethylphenoxy)-2-methylpropanoic acid] | – | – | – | – | – | – | – | – | – | Gal4-hPPARα(LBD) TOP (% ref) ([1]; listed as cpd 14-2): 58 % ref; Gal4-hPPARγ(LBD) TOP (% ref) ([2]; listed as cpd 14-2): 58 % ref; Gal4-hPPARδ(LBD) TOP (% ref) ([3]; listed as cpd 14-2): 74 % ref |
| COC(c1ccc(SC)cc1)C1CC1c1cc(C)c(OC(C)(C)C(=O)O)c(C)c1 (racemic) [Cpd 3-2, 2-(4-(2-(methoxy(4-(methylthio)phenyl)methyl)cyclopropyl)-2,6-dimethylphenoxy)-2-methylpropanoic acid] | – | – | – | – | – | – | 42 % ref | 65 % ref | 75 % ref | – |
| COC(c1ccc(C(F)(F)F)cc1)C1CC1c1cc(C)c(OC(C)(C)C(=O)O)c(C)c1 (racemic) [Cpd 4-1, 2-(4-(2-(methoxy(4-(trifluoromethyl)phenyl)methyl)cyclopropyl)-2,6-dimethylphenoxy)-2-methylpropanoic acid] | 64 nM | 20 nM | 16 nM | 47% | 84% | 92% | – | – | – | – |
| Cc1cc(C2CC2C(OCc2ccccc2)c2ccc(OC(F)(F)F)cc2)cc(C)c1OC(C)(C)C(=O)O (single isomer, unassigned) [Cpd 11-2, 2-(4-(2-(benzyloxy(4-(trifluoromethoxy)phenyl)methyl)cyclopropyl)-2,6-dimethylphenoxy)-2-methylpropanoic acid] | 100 nM | 23 nM | 122 nM | – | – | – | – | – | – | – |

Further lines, with some results ahead:

| EC50 [1] | EC50 [2] | EC50 [3] | Emax [1] | Emax [2] | Emax [3] | Gal4-hPPARα(LBD) TOP (% ref) [1] | Gal4-hPPARγ(LBD) TOP (% ref) [2] | Gal4-hPPARδ(LBD) TOP (% ref) [3] | Compound | also measured |
| --- | --- | --- | --- | --- | --- | --- | --- | --- | --- | --- |
| 50 nM | 2 nM | 12 nM | – | – | – | – | – | – | COC(c1ccc(C(F)(F)F)cc1C(F)(F)F)C1CC1c1cc(C)c(OC(C)(C)C(=O)O)c(C)c1 (single isomer, unassigned) [Cpd 16-2, 2-(4-(2-((2,4-bis(trifluoromethyl)phenyl)(methoxy)methyl)cyclopropyl)-2,6-dimethylphenoxy)-2-methylpropanoic acid] | – |
| – | – | – | – | – | – | 37 % ref | 85 % ref | 78 % ref | COC(c1ccc(C(F)(F)F)cc1F)C1CC1c1cc(C)c(OC(C)(C)C(=O)O)c(C)c1 (racemic) [Cpd 12-2, 2-(4-(2-(methoxy(2-fluoro-4-(trifluoromethyl)phenyl)methyl)cyclopropyl)-2,6-dimethylphenoxy)-2-methylpropanoic acid] | – |
| 449 nM | 66 nM | 105 nM | 24% | 66% | 92% | – | – | – | COC(c1ccc(OC(F)(F)F)cc1)C1CC1c1ccc(OC(C)(C)C(=O)O)c(C(C)C)c1 (single isomer, unassigned) [Cpd 15-1, 2-(2-isopropyl-4-(2-(methoxy(4-(trifluoromethoxy)phenyl)methyl)cyclopropyl)phenoxy)-2-methylpropanoic acid] | – |
| – | – | – | – | – | – | 50 % ref | 88 % ref | 71 % ref | COC(c1ccc(C(F)(F)F)cc1C(F)(F)F)C1CC1c1cc(C)c(OC(C)(C)C(=O)O)c(C)c1 (racemic) [Cpd 16-2, 2-(4-(2-((2,4-bis(trifluoromethyl)phenyl)(methoxy)methyl)cyclopropyl)-2,6-dimethylphenoxy)-2-methylpropanoic acid] | – |
